The record followed here is ChEMBL document CHEMBL1147166, “Structure-activity relationships of methoctramine-related polyamines as muscarinic antagonist: effect of replacing the inner polymethylene chain with cyclic moieties” (Bioorg Med Chem, 2007).

Assay [1] concerns the target T1, Muscarinic acetylcholine receptor M4 (Homo sapiens) (UniProt P08173).
T1 sequence (whole entry): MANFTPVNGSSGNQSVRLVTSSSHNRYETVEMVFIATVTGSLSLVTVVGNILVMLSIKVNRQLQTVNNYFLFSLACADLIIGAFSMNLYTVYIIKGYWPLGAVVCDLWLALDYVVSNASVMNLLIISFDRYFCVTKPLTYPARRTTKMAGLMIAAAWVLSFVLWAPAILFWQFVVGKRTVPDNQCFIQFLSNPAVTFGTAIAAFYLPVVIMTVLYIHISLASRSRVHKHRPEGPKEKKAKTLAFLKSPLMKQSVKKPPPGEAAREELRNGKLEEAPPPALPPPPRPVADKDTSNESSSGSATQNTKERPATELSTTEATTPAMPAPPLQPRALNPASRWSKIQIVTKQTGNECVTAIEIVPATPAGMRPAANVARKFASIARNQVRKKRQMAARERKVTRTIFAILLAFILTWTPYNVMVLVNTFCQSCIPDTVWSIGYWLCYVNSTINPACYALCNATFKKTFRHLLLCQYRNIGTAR
As to the kind of experiment: Antagonist potency at muscarinic receptor M4 in rabbit vas deferens. The format is functional, tissue-based. Conditions: Oryctolagus cuniculus, target entry is the homologue from another species.

The target of assay [2] is T2, Muscarinic acetylcholine receptor M2 (Homo sapiens) (UniProt P08172).
T2 sequence (whole entry): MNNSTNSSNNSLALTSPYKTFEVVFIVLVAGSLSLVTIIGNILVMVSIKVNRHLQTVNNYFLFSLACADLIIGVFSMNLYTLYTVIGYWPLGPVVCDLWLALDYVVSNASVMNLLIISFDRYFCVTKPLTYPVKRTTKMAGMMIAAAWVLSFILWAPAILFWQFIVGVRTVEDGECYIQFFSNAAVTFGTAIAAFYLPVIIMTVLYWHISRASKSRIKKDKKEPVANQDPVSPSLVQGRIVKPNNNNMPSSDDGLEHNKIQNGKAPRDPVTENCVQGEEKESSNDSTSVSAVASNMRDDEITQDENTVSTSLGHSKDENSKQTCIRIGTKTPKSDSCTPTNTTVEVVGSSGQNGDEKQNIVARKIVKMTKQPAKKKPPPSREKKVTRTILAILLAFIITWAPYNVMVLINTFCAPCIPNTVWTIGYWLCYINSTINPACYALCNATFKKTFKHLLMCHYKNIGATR
Briefly: Antagonist potency at muscarinic receptor M2 in guinea pig atrium. It counts as functional, tissue-based. To be noted: Cavia porcellus; Cardiac atrium; target entry is the homologue from another species.

A further assay has as its target Cholinesterase (Homo sapiens, UniProt P06276). Briefly: Inhibition of human serum recombinant BChE after 20 mins.
The target of a further assay is Acetylcholinesterase (Homo sapiens, UniProt P22303). Briefly: Inhibition of human erythrocyte recombinant AchE after 20 mins.
The target of assay [3] is Muscarinic acetylcholine receptor M3 (Cavia porcellus) (UniProt Q8VH26). Briefly: Antagonist potency at muscarinic receptor M3 in guinea pig ileum. It counts as functional, tissue-based.
In assay [4] the test system is Mus musculus. As to the kind of experiment: Antinociceptive activity in mouse assessed as licking latency at 5 mg/kg, ip by hot plate method. It counts as functional. Conditions: route intraperitoneal.
The subject of assay [5] is Mus musculus. As to the kind of experiment: Antinociceptive activity in mouse assessed as licking latency at 0.05 ug, icv after 30 mins by hot plate method. The format is functional.
The target in assay [6] is T3, Muscarinic acetylcholine receptor M5 (Homo sapiens, UniProt P08912).
T3 sequence (P08912 whole entry): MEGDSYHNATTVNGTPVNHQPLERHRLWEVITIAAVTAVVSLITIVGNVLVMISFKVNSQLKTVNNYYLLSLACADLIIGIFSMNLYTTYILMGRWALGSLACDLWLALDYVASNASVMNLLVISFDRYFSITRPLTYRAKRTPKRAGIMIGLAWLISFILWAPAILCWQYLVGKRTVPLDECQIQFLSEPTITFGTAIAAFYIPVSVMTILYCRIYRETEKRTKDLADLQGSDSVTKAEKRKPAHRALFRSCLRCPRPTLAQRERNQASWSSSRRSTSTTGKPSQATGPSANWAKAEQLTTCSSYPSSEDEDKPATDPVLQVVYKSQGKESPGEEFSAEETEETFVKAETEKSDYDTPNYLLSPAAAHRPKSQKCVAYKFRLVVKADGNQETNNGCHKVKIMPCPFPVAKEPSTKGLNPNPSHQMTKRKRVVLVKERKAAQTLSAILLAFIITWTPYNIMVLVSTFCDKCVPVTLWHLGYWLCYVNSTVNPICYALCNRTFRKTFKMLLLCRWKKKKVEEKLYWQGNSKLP
Briefly: Displacement of [3H] N-methyl-scopolamine chloride from human muscarinic receptor M5 expressed in CHO cells. It counts as cell-based.

The subject of assay [7] is Mus musculus. Briefly: Antinociceptive activity in mouse assessed as licking latency at 0.01 ug, icv after 30 mins by hot plate method. The format is functional.
The target in assay [8] is T4, Muscarinic acetylcholine receptor M1 (Homo sapiens, UniProt P11229).
T4 sequence (P11229 whole entry): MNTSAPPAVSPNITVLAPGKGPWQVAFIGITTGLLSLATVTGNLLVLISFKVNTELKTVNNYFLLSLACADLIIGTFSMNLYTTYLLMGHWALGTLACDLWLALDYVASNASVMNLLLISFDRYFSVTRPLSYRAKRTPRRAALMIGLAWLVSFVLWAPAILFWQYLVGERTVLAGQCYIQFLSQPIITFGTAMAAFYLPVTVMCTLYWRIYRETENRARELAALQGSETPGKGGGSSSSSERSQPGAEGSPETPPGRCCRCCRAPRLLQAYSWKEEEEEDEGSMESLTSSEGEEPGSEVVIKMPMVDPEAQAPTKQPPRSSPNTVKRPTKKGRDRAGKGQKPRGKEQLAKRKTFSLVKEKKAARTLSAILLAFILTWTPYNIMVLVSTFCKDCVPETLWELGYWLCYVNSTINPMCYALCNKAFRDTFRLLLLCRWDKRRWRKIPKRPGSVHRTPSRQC
As to the kind of experiment: Displacement of [3H] N-methyl-scopolamine chloride from human muscarinic receptor M1 expressed in CHO cells. It counts as cell-based.

The subject of assay [9] is Mus musculus. Briefly: Antinociceptive activity in mouse assessed as licking latency at 1.0 ug, icv after 60 mins by hot plate method. It counts as functional.
The test system of assay [10] is Mus musculus. Briefly: Antinociceptive activity in mouse assessed as licking latency at 0.005 ug, icv after 30 mins by hot plate method. It counts as functional.
In assay [11] the test system is Mus musculus. As to the kind of experiment: Antinociceptive activity in mouse assessed as licking latency at 1.0 ug, icv after 45 mins by hot plate method. The format is functional.
Assay [12] concerns the target T5, Muscarinic acetylcholine receptor M4 (Homo sapiens, UniProt P08173).
T5 sequence (P08173 whole entry): T1 sequence (whole entry)
As to the kind of experiment: Displacement of [3H] N-methyl-scopolamine chloride from human muscarinic receptor M4 expressed in CHO cells. The format is cell-based.

In assay [13] the test system is Mus musculus. As to the kind of experiment: Antinociceptive activity in mouse assessed as licking latency at 0.05 ug, icv after 45 mins by hot plate method. It counts as functional.
Assay [14] concerns Mus musculus. Briefly: Antinociceptive activity in mouse assessed as licking latency at 1.0 ug, icv after 15 mins by hot plate method. It counts as functional.
Assay [15] relates to Mus musculus. Briefly: Antinociceptive activity in mouse assessed as licking latency at 0.01 ug, icv after 60 mins by hot plate method. The format is functional.
For assay [16], the system named is Mus musculus. As to the kind of experiment: Antinociceptive activity in mouse assessed as licking latency at 0.005 ug, icv after 45 mins by hot plate method. It counts as functional.
The target of assay [17] is Muscarinic acetylcholine receptor M3 (Homo sapiens, UniProt P20309). Briefly: Displacement of [3H] N-methyl-scopolamine chloride from human muscarinic receptor M3 expressed in CHO cells. The format is cell-based.
In assay [18] the test system is Mus musculus. As to the kind of experiment: Antinociceptive activity in mouse assessed as licking latency at 0.01 ug, icv after 15 mins by hot plate method. The format is functional.
For assay [19], the system named is Mus musculus. Briefly: Antinociceptive activity in mouse assessed as licking latency at 0.005 ug, icv after 15 mins by hot plate method. The format is functional.
Assay [20] relates to Mus musculus. Briefly: Antinociceptive activity in mouse assessed as licking latency at 1.0 ug, icv after 30 mins by hot plate method. The format is functional.
The subject of assay [21] is Mus musculus. As to the kind of experiment: Antinociceptive activity in mouse assessed as licking latency at 0.05 ug, icv after 15 mins by hot plate method. The format is functional.
Assay [22] has as its system Mus musculus. Briefly: Antinociceptive activity in mouse assessed as licking latency at 0.01 ug, icv after 45 mins by hot plate method. The format is functional.
Assay [23] concerns Mus musculus. Briefly: Antinociceptive activity in mouse assessed as licking latency at 0.05 ug, icv after 60 mins by hot plate method. It counts as functional.
In assay [24] the test system is Mus musculus. Briefly: Antinociceptive activity in mouse assessed as licking latency at 0.005 ug, icv after 60 mins by hot plate method. The format is functional.
Assay [25] has as its system Mus musculus. As to the kind of experiment: Antinociceptive activity in mouse assessed as licking latency at 1 mg/kg, ip by hot plate method. It counts as functional. Conditions: route intraperitoneal.

Sequence of Muscarinic acetylcholine receptor M3 (Cavia porcellus) (Q8VH26 1-587): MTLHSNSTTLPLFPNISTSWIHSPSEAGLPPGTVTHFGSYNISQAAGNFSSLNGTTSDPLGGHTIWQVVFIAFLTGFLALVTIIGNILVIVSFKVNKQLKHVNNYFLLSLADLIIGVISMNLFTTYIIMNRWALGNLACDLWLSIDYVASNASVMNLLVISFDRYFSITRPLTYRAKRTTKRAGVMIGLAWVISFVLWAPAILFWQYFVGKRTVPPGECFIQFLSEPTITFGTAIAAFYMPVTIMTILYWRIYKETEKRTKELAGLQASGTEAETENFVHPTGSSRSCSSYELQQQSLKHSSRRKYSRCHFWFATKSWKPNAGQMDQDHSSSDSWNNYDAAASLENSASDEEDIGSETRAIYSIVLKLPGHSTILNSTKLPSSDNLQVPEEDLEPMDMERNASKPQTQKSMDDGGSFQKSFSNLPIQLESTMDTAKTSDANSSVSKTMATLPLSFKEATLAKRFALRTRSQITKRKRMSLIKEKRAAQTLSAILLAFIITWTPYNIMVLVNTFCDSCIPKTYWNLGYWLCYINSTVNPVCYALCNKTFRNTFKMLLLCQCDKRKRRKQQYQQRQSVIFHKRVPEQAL
Sequence of Acetylcholinesterase (P22303 whole entry): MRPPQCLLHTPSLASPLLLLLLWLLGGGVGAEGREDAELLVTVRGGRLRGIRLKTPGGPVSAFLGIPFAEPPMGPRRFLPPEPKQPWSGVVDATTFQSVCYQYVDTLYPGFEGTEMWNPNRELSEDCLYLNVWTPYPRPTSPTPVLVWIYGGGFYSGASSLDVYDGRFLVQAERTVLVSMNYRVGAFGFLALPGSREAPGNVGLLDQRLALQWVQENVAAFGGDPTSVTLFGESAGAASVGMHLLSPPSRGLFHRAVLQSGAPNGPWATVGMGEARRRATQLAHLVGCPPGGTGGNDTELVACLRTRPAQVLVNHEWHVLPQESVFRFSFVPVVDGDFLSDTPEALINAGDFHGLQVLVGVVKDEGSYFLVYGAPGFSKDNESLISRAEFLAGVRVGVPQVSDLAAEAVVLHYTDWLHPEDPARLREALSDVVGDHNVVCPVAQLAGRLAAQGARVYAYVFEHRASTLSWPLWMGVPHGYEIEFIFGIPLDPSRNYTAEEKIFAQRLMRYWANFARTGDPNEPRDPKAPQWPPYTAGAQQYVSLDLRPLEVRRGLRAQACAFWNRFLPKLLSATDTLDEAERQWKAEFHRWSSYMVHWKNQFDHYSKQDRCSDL
Sequence of Muscarinic acetylcholine receptor M3 (P20309 whole entry): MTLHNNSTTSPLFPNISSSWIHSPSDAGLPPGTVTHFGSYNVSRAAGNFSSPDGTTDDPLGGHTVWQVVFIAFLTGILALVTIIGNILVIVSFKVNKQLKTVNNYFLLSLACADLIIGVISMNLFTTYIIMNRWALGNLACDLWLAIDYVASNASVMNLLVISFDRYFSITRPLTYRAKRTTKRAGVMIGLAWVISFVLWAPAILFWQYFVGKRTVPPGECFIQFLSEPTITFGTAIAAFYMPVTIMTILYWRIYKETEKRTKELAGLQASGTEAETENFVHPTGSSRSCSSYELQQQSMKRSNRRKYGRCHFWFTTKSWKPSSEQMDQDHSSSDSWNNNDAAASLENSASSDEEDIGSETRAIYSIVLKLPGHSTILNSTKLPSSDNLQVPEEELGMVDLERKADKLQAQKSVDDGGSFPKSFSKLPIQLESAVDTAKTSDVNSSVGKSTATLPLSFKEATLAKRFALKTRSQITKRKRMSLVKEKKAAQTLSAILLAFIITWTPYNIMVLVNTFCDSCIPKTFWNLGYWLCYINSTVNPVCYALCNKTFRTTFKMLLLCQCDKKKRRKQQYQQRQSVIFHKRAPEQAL
Sequence of Cholinesterase (P06276 whole entry): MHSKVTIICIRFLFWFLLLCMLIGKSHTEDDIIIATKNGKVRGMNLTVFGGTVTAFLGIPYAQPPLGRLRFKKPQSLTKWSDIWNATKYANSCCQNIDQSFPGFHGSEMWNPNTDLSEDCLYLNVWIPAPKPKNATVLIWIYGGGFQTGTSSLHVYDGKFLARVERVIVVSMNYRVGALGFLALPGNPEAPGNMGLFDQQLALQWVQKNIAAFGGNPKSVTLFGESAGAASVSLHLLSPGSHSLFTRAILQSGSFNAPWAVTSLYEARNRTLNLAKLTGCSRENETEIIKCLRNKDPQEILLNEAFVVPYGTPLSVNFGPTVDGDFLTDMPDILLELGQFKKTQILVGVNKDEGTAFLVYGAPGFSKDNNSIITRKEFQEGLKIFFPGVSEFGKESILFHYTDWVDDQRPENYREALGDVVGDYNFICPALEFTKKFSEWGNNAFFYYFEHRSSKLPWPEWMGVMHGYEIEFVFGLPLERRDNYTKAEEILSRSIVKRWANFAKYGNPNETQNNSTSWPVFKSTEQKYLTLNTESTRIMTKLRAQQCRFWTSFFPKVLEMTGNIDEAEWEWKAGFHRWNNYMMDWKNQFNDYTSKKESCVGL

`COc1ccccc1CNCCCCCCNc1ccc(CCc2ccc(NCCCCCCNCc3ccccc3OC)cc2)cc1`: the results for the pKb in assay [1] and in [2] were < 5.52 and < 5, respectively.
For the compound `COc1ccccc1CNCCCCCC(=O)N1CCC(CCC2CCN(C(=O)CCCCCNCc3ccccc3OC)CC2)CC1`, the 50% inhibitory concentration (IC50) is 18600 nM at Cholinesterase and 135 nM on Acetylcholinesterase. The pKb in assay [1] amounted to 6.09; in assay [2] it was 5.91; in [3], 5.14.
For the compound `COc1ccccc1CNCCCCCCNc1ccc(-c2ccc(NCCCCCCNCc3ccccc3OC)cc2)cc1`, the pKb in assay [1] and in assay [2] was < 5 each time.
Take `COc1ccccc1CNCCCCCC(=O)N1CCC(CCCC2CCN(C(=O)CCCCCNCc3ccccc3OC)CC2)CC1`: the pKb was < 5 in [1], 5.11 in assay [2] and 5.09 in [3].
The matching figures for `COc1ccccc1CNCCCCCC(=O)N1CCC(C2CCN(C(=O)CCCCCNCc3ccccc3OC)CC2)CC1`: 6, 6.5 and 5.62.
In the case of `CN1[C@@H]2CC[C@H]1C[C@@H](OC(=O)C(CO)c1ccccc1)C2` (some centres not stated) [ATROPINE], the Activity with Mus musculus [4] is listed as 14.9 s.
With `COc1ccccc1CNCCCCCCN1CCC(C2CCN(CCCCCCNCc3ccccc3OC)CC2)CC1`, the pKb in [1] came to 6.13; in assay [2] it was 7.12; in assay [3], 6.08.
`COc1ccccc1CNCCCCCC(=O)Nc1ccc(Cc2ccc(NC(=O)CCCCCNCc3ccccc3OC)cc2)cc1`: the pKb is < 5 in assay [1], 5.47 in assay [2] and 5.32 in assay [3].
The corresponding values for `COc1ccccc1CNCCCCCC(=O)N1CCC(CC2CCN(C(=O)CCCCCNCc3ccccc3OC)CC2)CC1` are 5.37, 6.29 and 5.48.
The corresponding values for `COc1ccccc1CNCCCCCCN1CCC(CCCC2CCN(CCCCCCNCc3ccccc3OC)CC2)CC1` are 5.64, 7.52 and 6.37.
Take `COc1ccccc1CNCCCCCCNCCCCCCCCNCCCCCCNCc1ccccc1OC` [METHOCTRAMINE]: the Time stood at 23.9 s in the assay with Mus musculus [5]; 22.5 s in the assay on Mus musculus [7]; 15.5 s in the assay on Mus musculus [9]; 18.4 s with Mus musculus [10]; 17.5 s with Mus musculus [11]; 18.7 s in the assay with Mus musculus [13]. Further, the Time with Mus musculus [14] came to 20.6 s; with Mus musculus [15], 17.2 s; in the assay on Mus musculus [16] it was 18.3 s; in the assay with Mus musculus [18] it was 23.4 s; with Mus musculus [19], 20.2 s; with Mus musculus [20], 21.3 s. Moreover, the Time in the assay on Mus musculus [21] is given as 24.1 s; in the assay on Mus musculus [22] it was 19.3 s; in the assay on Mus musculus [23], 14.4 s; in the assay on Mus musculus [24] it was 16.6 s. Besides, the Ki is 550 nM in assay [6], 83.2 nM in [8], 107 nM in [12] and 525 nM in [17]. Moreover, the results for the pKb in assay [1] and in assay [3] were 6.45 and 6.32, respectively.
For `COc1ccccc1CNCCCCCC(=O)Nc1ccc(-c2ccc(NC(=O)CCCCCNCc3ccccc3OC)cc2)cc1`, the pKb was 5.21 in [1] and 5.31 in assay [2].
As to `COc1ccccc1CNCCCCCCN1CCC(CC2CCN(CCCCCCNCc3ccccc3OC)CC2)CC1`, the pKb was determined as 5.39 in assay [1], 7.16 in assay [2] and 5.82 in assay [3].
The matching figures for `COc1ccccc1CNCCCCCCNc1ccc(Cc2ccc(NCCCCCCNCc3ccccc3OC)cc2)cc1`: < 5, < 5 and 5.35.
For the compound `C=CCN1CC[C@]23c4c5ccc(O)c4O[C@H]2C(=O)CC[C@@]3(O)[C@H]1C5` [NALOXONE], the Activity with Mus musculus [25] came out at 15.1 s.
In the case of `COc1ccccc1CNCCCCCC(=O)Nc1ccc(CCc2ccc(NC(=O)CCCCCNCc3ccccc3OC)cc2)cc1`, the pKb in [1], in [2] and in [3] was < 5 in each case.
